Measured values reported in patent US20240091227A1, “Use Of 2-Phenyl-6-(1H-Imidazol-1-YL) Quinazoline For Treating Neurodegenerative Diseases, Preferably Alzheimer's Disease” (ROTTAPHARM BIOTECH S.R.L., priority 2019, published 2024).
Read-outs that look alike come from different tables or passages of the source.

Key:
[1] = test system: Rats treated with scopolamine; assay: Morris water maze in scopolamine-induced memory impairment; type: in vivo, rat; settings: scopolamine 1 mg/kg sc, CR4056 20 mg/kg os, mean over four days
Description: FIG. 4 reports the results of the Morris Water Maze test in the model of scopolamine-induced memory loss. Rats treated with scopolamine (Sco, 1 mg/kg) or physiological solution (Sal) received CR4056 20 mg/kg/die or its vehicle (MC). Data represented the mean time spent to reach the hidden platform over four days. Two way ANOVA. Tukey Comparison test. ** P<0.01.
The Morris water maze test was used to evaluate cognitive function distinct in two phases: first, the acquisition and spatial localization of a hidden platform and, subsequently, the processing, consolidating, retaining and then retrieving the acquired information to successfully locate the platform to escape the water.
Place navigation required the rats to learn to swim from any starting position to the escape platform, thereby acquiring a long-term memory of the platform's spatial location. Animals were placed into various quadrants of the pool and the time elapsed and the distance traversed to reach the hidden platform was recorded. Various objects were placed in the testing room so that the animals used these visual cues as a means of navigating in the Maze. After repeated entry into the Maze, the animals became more and more efficient at locating the platform, thus escaping the water by learning the location of the platform relative to the distal visual cues. […]

PKCε = PKCε translocation to the plasma membrane in cultured dorsal root ganglia neurons; type: cell-based, rat; settings: for IC50: rat DRG neurons
Description: FIG. 1 reports the time-course (A) and washout (B) of CR4056 effect on PKCF translocation induced by bradykinin (BK 1 μM). In Panel A, open symbols represent the percentage of neurons positive for PKCF translocation following BK stimulation in absence of the drug. Filled symbols represent neurons pre-incubated with CR4056 ([…]) for different times before the stimulation for 30 seconds with BK+CR4056. The first filled symbol indicates the effect of CR4056 co-incubated for 30 seconds with BK, the second filled symbol indicates 10 seconds of pre-incubation of CR4056, and the last indicates 24 hours of pre-incubation of CR4056. […] In Panel B, BK-induced PKCF translocation was evaluated before (open symbol) and after pre-incubation of CR4056 ([…]) at different time intervals (from 10 minutes to 8 hours) (filled symbols). The first datapoint was obtained at the end of the 10 minute pre-incubation, when CR4056 was still present. The subsequent datapoints were obtained after extensive rinsing to ensure complete removal of the drug from extracellular solution (n=3).
Rat dorsal root ganglia (DRGs) were obtained from freshly isolated spines after carefully removing nerve trunks and connective tissue. Larger ganglia, chopped into 2-4 smaller pieces were then incubated for 1 hour at 37° C. in 0.125% collagenase (Worthington, Freehold, NJ) dissolved in Dulbecco's modified Eagle's medium (DMEM) containing 10% fetal bovine serum (FBS) plus 1% penicillin/streptomycin and 1% L-glutamine (Euroclone, Milan, Italy). After enzymatic digestion, ganglia were mechanically dissociated and neurons plated at a density such that neurons would cover about 30% of coverslip surface in a single layer, in petri dishes containing wells with a glass bottom coverslip (pre-coated with 10 μg/mL poly-L-lysine and 20 µg/ml laminin, Sigma-Aldrich, Milan, Italy). Cells were incubated for 2-3 days in DMEM as described above, plus 1.5 μg/ml cytosine 1-d-arabinofuranoside (ARA-C, Sigma-Aldrich) to slow down proliferation of non neuronal cells, and 100 ng/ml nerve growth factor (NGF, Sigma-Aldrich) to increase cell health and the and the expression of receptors which are linked to PKCF translocation upon stimulation. Activation of membrane receptors coupled to phospholipase C pathway leads to PKCF translocation from cytoplasm to the plasma membrane. In order to study PKCε behaviour a well established technique was employed (Vellani V, Neuroscience, 2006). […] CR4056 was pre-applied in the culture medium for 10 min or co-applied with the stimulus. After fixation, cells were permeabilized with 0.2% Triton X-100 (Sigma-Aldrich, Milan, Italy) and exposed overnight to a rabbit polyclonal antibody highly specific for PKCF. After extensive rinsing, PKCF was visualized with a secondary antibody (1:200 dilution Alexa Fluor 488 goat anti-rabbit, Thermo Fisher Scientific, Monza, Italy) applied for 2-4 hours at room temperature in the dark Cells showing PKCF translocation were detected with a confocal microscope (Leica SP2, Leica, Switzerland) by measuring fluorescence intensity along a line drawn through the cytoplasm and the membrane, thus avoiding the nucleus. Neurons in which fluorescence intensity at the plasma membrane throughout the cell was 1.5-fold or higher than the mean cytoplasmic intensity were considered positive.

[2] = test system: Rats treated with scopolamine; assay: Passive avoidance in scopolamine-induced memory impairment; type: in vivo, rat
Description: FIG. 3 reports results of a passive avoidance test in the model of scopolamine-induced memory loss. Rats treated with scopolamine (Sco, 1 mg/kg) or physiological solution (Sal) received CR4056 10 mg/kg bid or its vehicle (MC). t student test. *p<0.05; **P<0.01 (n=6).
Scopolamine, a nonselective muscarinic receptor antagonist, produces a blocking of the activity of the muscarinic acetylcholine receptor, and the concomitant appearance of transient cognitive amnesia and electrophysiological changes, which resemble those observed in Alzheimer's disease. Therefore, scopolamine administration may be considered as a psychopharmacological model of Alzheimer's disease (Lenz R A, Psychopharmacology (Berl), 2012). Passive avoidance is a behavioural model of memory impairment.
The apparatus consisted of a two-compartment box: light and dark compartments separated by a door. The rat was placed in the center of the light compartment, with the door between two compartments closed. After 4 seconds, the door was opened and the latency time, i.e., the time taken by the rat to enter all four paws into the dark compartment was recorded.
Once the rat moved completely in the dark compartment, the door was closed and immediately a mild foot shock was delivered through the grid floor. Thus, during the initial phase the animal learned that the moving to the dark compartment had negative consequences. […]

[3] = 10 μM, 10 minute application, then washout

SMILES: c1ccc(-c2ncc3cc(-n4ccnc4)ccc3n2)cc1 [CR4056, 2-phenyl-6-(1H-imidazol-1-yl)quinazoline]
- Time to reach the hidden platform, Morris water maze [1]: significantly reduced the time taken to get to the platform
- Time after washout during which the effect remained unchanged (PKCε; [3]): up to 1 hour
- Time after washout to complete reversal of the effect (PKCε; [3]): 3 to 4 h
- Influence of preincubation time on inhibition of PKCF translocation (PKCε; 10 μM, preincubation prolonged up to 24 hours or reduced to 10 seconds): did not change the extent of the effect
- Effect on BK-induced PKCF translocation, time-course (FIG. 1A) (PKCε; CR4056 10 M, co-incubation 30 seconds to 24 hours pre-incubation, BK 1 μM, t-test p<0.05, n=6): highly significant at all times
- Concentration at which the dose-response curves approached saturation (PKCε; CR4056 applied for 10 minutes): about 10 μM
- IC50 (PKCε; bradykinin stimulus, read-out: IC50, inhibition of PKCF translocation obtained with BK): 200 nM
- IC50 (PKCε; prokineticin 2 stimulus, read-out: IC50, inhibition of PKCF translocation obtained with PK2): 170 nM
- Escape latency time, passive avoidance, sham animals ([2]; rats not treated with scopolamine, CR4056 10 mg/kg bid vs vehicle (MC)): not different from its vehicle
- Escape latency time, passive avoidance, scopolamine-treated animals ([2]; rats, scopolamine 1 mg/kg sc, CR4056 10 mg/kg bid orally): counteracted the memory impairment
